Source: PMC2888050, “Cromoglycate drugs suppress eicosanoid generation in U937 cells by promoting the release of Anx-A1” (Biochemical Pharmacology, 2009)

Target: T1, PP2A (Bos taurus, UniProt P67774)
T1 construct: gene PPP2CA
Test: colorimetric pNPP phosphatase assay with purified enzyme, […] min pre-incubation
Assay type: biochemical

T1 sequence (P67774 whole entry): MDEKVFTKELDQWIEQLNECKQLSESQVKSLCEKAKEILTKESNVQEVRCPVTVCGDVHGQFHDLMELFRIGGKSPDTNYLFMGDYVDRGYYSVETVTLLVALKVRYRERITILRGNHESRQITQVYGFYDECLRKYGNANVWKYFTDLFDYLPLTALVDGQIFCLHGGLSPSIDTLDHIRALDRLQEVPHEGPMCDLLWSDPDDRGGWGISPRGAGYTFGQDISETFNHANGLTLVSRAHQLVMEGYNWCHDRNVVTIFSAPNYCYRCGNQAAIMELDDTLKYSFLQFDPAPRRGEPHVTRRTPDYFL

Row | IC50 | SMILES
1 | ~0.65 nM | CCCc1c2oc(C(=O)O)cc(=O)c2cc2c(=O)cc(C(=O)O)n(CC)c12 [nedocromil]
2 | ~1.7 nM | O=C(O)c1cc(=O)c2c(OCC(O)COc3cccc4oc(C(=O)O)cc(=O)c34)cccc2o1 [cromoglycate]
